{
  "source": "patent US10011570B2",
  "about": "“Nucleic acid binding dyes with improved safety” (Biotium, Inc., priority 2013, dated 2018)",
  "origin": "cited, not measured here",
  "tested_on": "cellular mutation caused by UV light or other known mutagens",
  "conditions": "cited from earlier work",
  "data": [
    {"smiles": "CCCN(CCCN(C)C)c1cc(/C=C2/Sc3ccccc3N2C)c2ccccc2[n+]1-c1ccccc1", "note": "[SYBR Green]", "values": [
      {"measurement": "effect on cellular mutation caused by UV light or other known mutagens", "value": "can worsen cellular mutation"},
      {"measurement": "power in worsening mutation relative to ethidium bromide", "value": "~100", "unit": "times"}
    ]}
  ]
}
